Legend:
PR-1, PR-2 and PR-5 = test: Northern analysis of SAR gene expression after chemical treatment
Method: Plants were then treated with H2O, 5 mM SA, 300 FM BTH, or 300 FM INA. Chemicals were applied as a fine mist to completely cover the seedlings using a chromister. Water control plants were returned to the growing phytotron while the chemically treated plants were held in a separate but identical phytotron. At 3 days post-chemical application, water and chemically treated plants were inoculated with the compatible Emwa isolate. Noco inoculation was conducted on water treated plants only. Following inoculation, plants were covered with a clear plastic dome to maintain high humidity required for successful P. parasitica infection and placed in a growing chamber with 19° C. day/17° C. night temperatures and 8 h light/16 h dark cycles. RNA was extracted from plants 3 days after either water or chemical treatment, or 14 days after inoculation with the compatible P. parasitica Emwa isolate. The RNA was size-fractionated by agarose gel electrophoresis and transferred to GeneScreenPlus membranes (DuPont).
In FIG. 1, replicate blots were hybridized to Arabidopsis gene probes PR-1, PR-2 and PR-5 as described in Uknes et al. (1992).

[1] = tested on: Peronospora parasitica isolate Emwa; test: Infection severity rating after inoculation with Peronospora parasitica (Emwa) following chemical pretreatment
Method: (§1) Wild-type seeds and seeds for each of the nim1 alleles (nim1-1,-2,-3,-4,-5,-6) were sown onto MetroMix 300 growing media, covered with a transparent plastic dome, and placed at 4° C. in the dark for 3 days. After 3 days of 4° C. treatment, the plants were moved to a phytotron for 2 weeks. By approximately 2 weeks post-planting, germinated seedlings had produced 4 true leaves. Plants were then treated with H2O, 5 mM SA, 300 μM BTH, or 300 μM INA. Chemicals were applied as a fine mist to completely cover the seedlings using a chromnister. Water control plants were returned to the growing phytotron while the chemically treated plants were held in a separate but identical phytotron. At 3 days post-chemical application, water and chemically treated plants were inoculated with the compatible ‘Emwa’ isolate. ‘Noco’ inoculation was conducted on water treated plants only. Following inoculation, plants were covered with a clear plastic dome to maintain high humidity required for successful P. parasitica infection and placed in a growing chamber with 19° C. day/17° C. night temperatures and 8 h light/16 h dark cycles.
WsWT indicates the Ws wild type parent line in which the nim1 alleles were found. The various nim1 alleles are indicated in the table and the NahG plant is indicated also.
NahG plants therefore serve as a kind of universal susceptibility control.

NIM1 gene = test: RNA gel blot of NIM1 (gene region 2) mRNA after chemical treatment; details: wild-type Ws plants (FIG. 7)
From the text: To ascertain which gene region contained the NIM1 gene, gel blots containing RNA isolated from leaf tissue of Ws-0 and the different nim1 mutants following either water or chemical treatment were probed with DNA derived from each of the four gene regions. In these experiments, care was taken to label probes to high specific activity and autoradiographs were exposed for more than 1 week.
Identical Northern blots were made from RNA samples isolated from water-, SA-, BTH- and INA-treated Ws and nim1 lines as previously described in Delaney, et al. (1995). These blots were hybridized with PCR products generated from the four gene regions identified in the 9.9 kb NIM1 gene region (SEQ ID NO:1).
The same RNA samples produced in the induction studies (FIG. 3) were also probed with the NIM1 gene using a full4ength cDNA clone as a probe.

[2] = tested on: Peronospora parasitica isolate Emwa; test: Percent of plants showing P. parasitica Emwa surface conidia after chemical pretreatment; details: for Percent Infection - Emwa: P. parasitica inoculated 3 days after chemical treatment
Method: Mutant plants were treated with SA, INA, and BTH and then assayed for resistance to Peronospora parasitica.P. parasitica isolate ‘Emwa’ is a Pp. isolate that is compatible in the Ws ecotype.
as §1
To determine the relative strength of the different nim1 alleles, each mutant was microscopically analyzed at various timepoints after inoculation for the growth of P. parasitica under normal growth conditions and following pretreatment with either SA, INA, or BTH. Under magnification, sporulation of the fungus could be observed at very early stages of disease development. The percentage of plants/pot showing sporulation at 5d, 6d, 7d, 1 id and 14d after inoculation was determined and the density of sporulation was also recorded.
P. parasitica was inoculated onto the plants three days after water or chemical treatment.

## CSC(=O)c1cccc2nnsc12 [BTH]
PR-1, PR-2 and PR-5; nim1 plants, RNA gel blots FIGS. 1-3
  SAR and SAR gene expression (PR-1, PR-2, PR-5): induce neither SAR nor SAR gene expression
PR-1, PR-2 and PR-5; wild-type plants, RNA 3 days after chemical treatment (FIG. 3)
  PR-1 mRNA accumulation: accumulates to high levels
[1]; NahG plants
  response of plants to the inducer (disease resistance): very good response
[1]; NahG plants, Day 7 after inoculation
  Infection Severity - Emwa: 0
[1]; NahG plants, Day 11 after inoculation
  Infection Severity - Emwa: 0
[1]; Ws Wt plants, Day 7 after inoculation
  Infection Severity - Emwa: 0
[1]; Ws Wt plants, Day 11 after inoculation
  Infection Severity - Emwa: 0
[1]; Ws plants
  induced resistance to Emwa: very good resistance
[1]; nim1-1 plants, Day 7 after inoculation
  Infection Severity - Emwa: 2.5
[1]; nim1-1 plants, Day 11 after inoculation
  Infection Severity - Emwa: 4
[1]; nim1-2 plants, Day 7 after inoculation
  Infection Severity - Emwa: 3.5
[1]; nim1-2 plants, Day 11 after inoculation
  Infection Severity - Emwa: 4
[1]; nim1-3 plants, Day 7 after inoculation
  Infection Severity - Emwa: 3
[1]; nim1-3 plants, Day 11 after inoculation
  Infection Severity - Emwa: 3.5
[1]; nim1-4 plants, Day 7 after inoculation
  Infection Severity - Emwa: 4
[1]; nim1-4 plants, Day 11 after inoculation
  Infection Severity - Emwa: 5
[1]; nim1-5 plants, Day 7 after inoculation
  Infection Severity - Emwa: 1.5
[1]; nim1-5 plants, Day 11 after inoculation
  Infection Severity - Emwa: 2
[1]; nim1-6 plants, Day 7 after inoculation
  Infection Severity - Emwa: 3
[1]; nim1-6 plants, Day 11 after inoculation
  Infection Severity - Emwa: 4
NIM1 gene
  NIM1 (gene region 2) mRNA: induced
[2]; Ws WT plants, Day 0
  Percent Infection - Emwa: 0%
[2]; Ws WT plants, Day 5
  Percent Infection - Emwa: 0%
[2]; Ws WT plants, Day 6
  Percent Infection - Emwa: 0%
[2]; Ws WT plants, Day 7
  Percent Infection - Emwa: 0%
[2]; Ws WT plants, Day 11
  Percent Infection - Emwa: 0%
[2]; nim1-1 plants, Day 0
  Percent Infection - Emwa: 0%
[2]; nim1-1 plants, Day 5
  Percent Infection - Emwa: 1%
[2]; nim1-1 plants, Day 6
  Percent Infection - Emwa: 5%
[2]; nim1-1 plants, Day 7
  Percent Infection - Emwa: 30%
[2]; nim1-1 plants, Day 11
  Percent Infection - Emwa: 100%
[2]; nim1-2 plants, Day 0
  Percent Infection - Emwa: 0%
[2]; nim1-2 plants, Day 5
  Percent Infection - Emwa: 0%
[2]; nim1-2 plants, Day 6
  Percent Infection - Emwa: 25%
[2]; nim1-2 plants, Day 7
  Percent Infection - Emwa: 90%
[2]; nim1-2 plants, Day 11
  Percent Infection - Emwa: 100%
[2]; nim1-3 plants, Day 0
  Percent Infection - Emwa: 0%
[2]; nim1-3 plants, Day 5
  Percent Infection - Emwa: 15%
[2]; nim1-3 plants, Day 6
  Percent Infection - Emwa: 70%
[2]; nim1-3 plants, Day 7
  Percent Infection - Emwa: 100%
[2]; nim1-3 plants, Day 11
  Percent Infection - Emwa: 100%
[2]; nim1-4 plants, Day 0
  Percent Infection - Emwa: 0%
[2]; nim1-4 plants, Day 5
  Percent Infection - Emwa: 80%
[2]; nim1-4 plants, Day 6
  Percent Infection - Emwa: 100%
[2]; nim1-4 plants, Day 7
  Percent Infection - Emwa: 100%
[2]; nim1-4 plants, Day 11
  Percent Infection - Emwa: 100%
[2]; nim1-5 plants, Day 0
  Percent Infection - Emwa: 0%
[2]; nim1-5 plants, Day 5
  Percent Infection - Emwa: 0%
[2]; nim1-5 plants, Day 6
  Percent Infection - Emwa: 1%
[2]; nim1-5 plants, Day 7
  Percent Infection - Emwa: 1%
[2]; nim1-5 plants, Day 11
  Percent Infection - Emwa: 10%
[2]; nim1-6 plants, Day 0
  Percent Infection - Emwa: 0%
[2]; nim1-6 plants, Day 5
  Percent Infection - Emwa: 1%
[2]; nim1-6 plants, Day 6
  Percent Infection - Emwa: 90%
[2]; nim1-6 plants, Day 7
  Percent Infection - Emwa: 100%
[2]; nim1-6 plants, Day 11
  Percent Infection - Emwa: 100%
[2]; nim1 plants
  activity in nim1 plants: inactive
